Experimental findings from patent publication US9388189B2, “Pyrrolotriazinone derivatives as PI3K inhibitors” (ALMIRALL, S.A., priority 2012, dated 2016) are described below.

Chain of PI3Kδ (PI3Kd) (O00329 whole entry, canonical isoform): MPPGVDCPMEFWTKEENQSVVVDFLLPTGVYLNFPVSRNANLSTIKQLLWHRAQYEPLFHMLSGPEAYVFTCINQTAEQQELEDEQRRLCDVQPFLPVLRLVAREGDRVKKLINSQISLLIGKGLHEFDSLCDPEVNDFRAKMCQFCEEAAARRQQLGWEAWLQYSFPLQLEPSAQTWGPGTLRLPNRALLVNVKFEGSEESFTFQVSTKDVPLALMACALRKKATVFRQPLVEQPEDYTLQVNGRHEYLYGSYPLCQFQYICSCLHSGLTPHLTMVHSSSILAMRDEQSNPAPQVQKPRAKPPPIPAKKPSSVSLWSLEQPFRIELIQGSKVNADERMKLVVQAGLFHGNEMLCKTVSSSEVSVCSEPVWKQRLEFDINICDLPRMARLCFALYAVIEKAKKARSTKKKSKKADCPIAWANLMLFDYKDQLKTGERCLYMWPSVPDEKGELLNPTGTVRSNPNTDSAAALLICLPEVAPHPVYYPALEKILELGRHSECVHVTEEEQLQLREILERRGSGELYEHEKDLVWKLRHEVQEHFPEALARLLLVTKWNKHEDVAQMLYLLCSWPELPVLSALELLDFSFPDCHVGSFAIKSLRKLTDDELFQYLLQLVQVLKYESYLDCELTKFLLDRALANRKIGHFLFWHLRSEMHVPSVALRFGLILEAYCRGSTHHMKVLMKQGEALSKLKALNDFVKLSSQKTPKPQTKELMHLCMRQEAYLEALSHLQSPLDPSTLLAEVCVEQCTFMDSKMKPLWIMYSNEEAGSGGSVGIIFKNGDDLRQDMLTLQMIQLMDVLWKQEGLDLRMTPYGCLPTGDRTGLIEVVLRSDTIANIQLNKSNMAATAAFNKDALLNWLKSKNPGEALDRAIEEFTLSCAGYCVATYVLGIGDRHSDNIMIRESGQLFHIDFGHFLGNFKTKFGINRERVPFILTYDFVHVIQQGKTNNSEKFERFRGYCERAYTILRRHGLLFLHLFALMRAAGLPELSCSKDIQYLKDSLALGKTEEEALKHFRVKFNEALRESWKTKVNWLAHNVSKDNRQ
Chain of PI3Kδ (PI3Kd) (P27986 whole entry partner, canonical isoform): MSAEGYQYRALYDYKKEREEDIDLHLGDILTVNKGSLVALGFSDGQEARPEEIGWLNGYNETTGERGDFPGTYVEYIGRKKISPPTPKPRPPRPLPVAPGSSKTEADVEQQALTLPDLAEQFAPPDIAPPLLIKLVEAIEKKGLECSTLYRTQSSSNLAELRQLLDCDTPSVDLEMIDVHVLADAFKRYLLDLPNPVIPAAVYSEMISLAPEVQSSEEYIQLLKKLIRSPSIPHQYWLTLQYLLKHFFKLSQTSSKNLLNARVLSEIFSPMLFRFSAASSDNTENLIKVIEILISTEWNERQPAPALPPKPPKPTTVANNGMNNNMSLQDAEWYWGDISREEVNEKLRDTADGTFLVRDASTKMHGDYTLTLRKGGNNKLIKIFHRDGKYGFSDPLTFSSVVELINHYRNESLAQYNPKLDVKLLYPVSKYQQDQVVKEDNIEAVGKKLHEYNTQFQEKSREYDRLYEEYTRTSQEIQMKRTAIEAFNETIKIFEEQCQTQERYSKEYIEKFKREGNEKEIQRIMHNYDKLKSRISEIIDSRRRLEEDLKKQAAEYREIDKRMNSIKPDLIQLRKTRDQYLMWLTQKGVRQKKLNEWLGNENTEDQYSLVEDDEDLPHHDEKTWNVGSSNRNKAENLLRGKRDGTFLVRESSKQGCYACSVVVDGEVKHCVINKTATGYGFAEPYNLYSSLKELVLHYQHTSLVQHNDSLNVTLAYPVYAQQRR

The experiment addresses PI3Kδ (PI3Kd) (Homo sapiens (Human), UniProt O00329). The experiment in a line: PI3K HTRF enzymatic inhibition assay (cell-free), delta isoform. The note with it: read-out: IC50 PI3Kd HTRF; recombinant PI3K delta, [ATP] 15 μM, [PIP2] 2 μM, 30 min preincubation. In general terms: TR-FRET usually uses a lanthanide donor and a delayed reading to cut background.
Description: Compounds were screened for their ability to inhibit PI3Kα (PI3Ka), PI3Kβ (PI3Kb), PI3Kδ (PI3Kd) and PI3Kγ (PI3Kg) using a cell-free based PI3K HTRF™ assay (Millipore, ref. #33-017).
PI-3 Kinase HTRF kit (ref. #33-037) and the different PI3K recombinant isoforms (ref. #14-602, ref. #14-603, ref. #14-604, ref. #15-558 for Alpha, Beta, Delta and Gamma respectively) were purchased at Millipore (expressed in insect cells). ATP was purchased at Sigma Aldrich (ref. #A7699).
The compounds were pre-incubated with the enzyme for 30 min before starting of the catalytic reaction. [PIP2] was used at its Km. […] Time of assay and [Enzyme] were optimized to work in the linear range. Stop and Detection mixtures were used as specified in the Millipore PI-3 Kinase kit.
Reaction time and enzyme concentration in the assay will depend of each batch.
All experiments were analysed using Activity Base software from IDBS and the four-parameter log equation.
For the compound `Cc1nnc(-c2cccc(-c3c[nH]c4ncnc(N[C@@H](C)c5nn6ccc(C)c6c(=O)n5-c5ccccc5)c34)c2)o1` [Example 188, (S)-5-Methyl-2-(1-((5-(3-(5-methyl-1,3,4-oxadiazol-2-yl)phenyl)-7H-pyrrolo[2,3-d]pyrimidin-4-yl)amino)ethyl)-3-phenylpyrrolo[2,1-f][1,2,4]triazin-4(3H)-one], the IC50 came to 0.4 nM. With `Cc1ccn2nc([C@H](C)Nc3ncnc(N)c3C(=O)Oc3cc(O)cc(NS(C)(=O)=O)c3)n(-c3ccccc3)c(=O)c12` [Example 195, (S)-3-Hydroxy-5-(methylsulfonamido)phenyl 4-amino-6-((1-(5-methyl-4-oxo-3-phenyl-3,4-dihydropyrrolo[2,1-f][1,2,4]triazin-2-yl)ethyl)amino)pyrimidine-5-carboxylate] the figure was 0.2 nM; with `COc1ccc(S(=O)(=O)n2ccc3ccc(-c4c(N)ncnc4N[C@@H](C)c4nn5ccc(C)c5c(=O)n4-c4ccccc4)cc32)cc1` [Example 199, (S)-2-(1-((6-Amino-5-(1-((4-methoxyphenyl)sulfonyl)-1H-indol-6-yl)pyrimidin-4-yl)amino)ethyl)-5-methyl-3-phenylpyrrolo[2,1-f][1,2,4]triazin-4(3H)-one], 3 nM.

As for `Cc1ccn2nc([C@H](C)Nc3ncnc4[nH]cc(-c5cc(NS(C)(=O)=O)c6cc[nH]c6c5)c34)n(-c3ccccc3)c(=O)c12` [Example 209, (S)—N-(6-(4-((1-(5-Methyl-4-oxo-3-phenyl-3,4-dihydropyrrolo[2,1-f][1,2,4]triazin-2-yl)ethyl)amino)-7H-pyrrolo[2,3-d]pyrimidin-5-yl)-1H-indol-4-yl)methanesulfonamide], the IC50 is 0.2 nM. For `CCNc1ncc(-c2c(N)ncnc2N[C@@H](C)c2nn3ccc(C)c3c(=O)n2-c2ccccc2)cc1NS(=O)(=O)c1ccc(O)cc1` [Example 218, (S)—N-(5-(4-Amino-6-((1-(5-methyl-4-oxo-3-phenyl-3,4-dihydropyrrolo[2,1-f][1,2,4]triazin-2-yl)ethyl)amino)pyrimidin-5-yl)-2-(ethylamino)pyridin-3-yl)-4-hydroxybenzenesulfonamide], the IC50 was 5 nM. As for `Cc1ccn2nc([C@H](C)Nc3ncnc4[nH]cc(-c5cc(NS(C)(=O)=O)cc(C(=O)N(C)C)c5)c34)n(-c3ccccc3)c(=O)c12` [Example 219, (S)—N,N-dimethyl-3-(4-((1-(5-methyl-4-oxo-3-phenyl-3,4-dihydropyrrolo[2,1-f][1,2,4]triazin-2-yl)ethyl)amino)-7H-pyrrolo[2,3-d]pyrimidin-5-yl)-5-(methylsulfonamido)benzamide], the concentration for half-maximal inhibition (IC50) was found to be 0.3 nM. Consider `Cc1ccn2nc([C@H](C)Nc3ncnc4[nH]cc(-c5ccnc(N6CCC(N(C)C)CC6)c5)c34)n(-c3ccccc3)c(=O)c12` [Example 225, (S)-2-(1-((5-(2-(4-(Dimethylamino)piperidin-1-yl)pyridin-4-yl)-7H-pyrrolo[2,3-d]pyrimidin-4-yl)amino)ethyl)-5-methyl-3-phenylpyrrolo[2,1-f][1,2,4]triazin-4(3H)-one], for which the half-maximal inhibitory concentration (IC50) was determined as 0.4 nM. `Cc1ccn2nc([C@H](C)Nc3ncnc4[nH]cc(-c5ccc(NS(=O)(=O)N(C)C)cc5O)c34)n(-c3ccccc3)c(=O)c12` [Example 239, N′-[3-Hydroxy-4-(4-{[(1S)-1-(5-methyl-4-oxo-3-phenyl-3,4-dihydropyrrolo[2,1-f][1,2,4]triazin-2-yl)ethyl]amino}-7H-pyrrolo[2,3-d]pyrimidin-5-yl)phenyl]-N,N-dimethylsulfamide]: the IC50 was determined as 2 nM. The same measure for “(S)—N-(6-(4-Amino-6-((1-(5-methyl-4-oxo-3-phenyl-3,4-dihydropyrrolo[2,1-f][1,2,4]triazin-2-yl)ethyl)amino)pyrimidin-5-yl)-1H-indol-4-yl)-4-hydroxybenzenesulfonamide [Example 190]”: 0.8 nM; for “(S)—N-((1H-Pyrazol-4-yl)ethyl)-4-((1-(5-methyl-4-oxo-3-phenyl-3,4-dihydropyrrolo[2,1-f][1,2,4]triazin-2-yl)ethyl)amino)-7H-pyrrolo[2,3-d]pyrimidine-5-carboxamide [Example 88]”: 41 nM.

Usually IC50 stands for the concentration at which inhibition is half-maximal.
